Values of other authors in patent US10406114B2, “Antibiotic-loaded transdermal patch” (priority 2017, dated 2019).

System: Staphylococcus aureus

SMILES: CC1=C(C(=O)O)N2C(=O)[C@@H](NC(=O)[C@H](N)c3ccccc3)[C@H]2SC1 [cephalexin]
- MIC: about 8 μg/ml
